In general, melting point refers to the temperature, or range, at which the solid turns liquid.

This passage reports melting point results from a melting point compilation (Tetko et al.; mined from patent text by program, amines drawn as free bases though some values may be those of a salt).

A value given as a limit tells only on which side of the number the result lay.

Compound `CN1C=C(C(=O)Nc2ccccc2)C(C(F)(F)F)N1CO` (stereo unspecified) showed a melting point of 191 °C.
Take `COc1cc(CC(=O)NCCCc2ccc(C)c(C)c2)ccc1OCCNCCN`: the melting point lay within 119 to 120 °C.
`O=C(OCC(F)(F)F)c1ncn2c1CN=C(c1ccccc1F)c1cc(Br)ccc1-2` displayed a melting point of 223 to 224 °C.
As to `CCCOc1cc(CCCOc2c(CC(=O)O)cccc2OC)n(Cc2ccc(Cl)cc2)n1`, the melting point was in the range of 131 to 132 °C.
Take `CC(=O)Nc1cc(F)c([N+](=O)[O-])cc1F`: the melting point lay within 188 to 189 °C.
`CN1CC=C(c2c[nH]c(-c3ccc(F)cc3)c2-c2ccncc2)CC1Cc1ccccc1` (stereo unspecified) came in with a melting point of 198 to 199 °C.
The compound `COC(=O)C(C)Oc1cc(C)ccc1C=O` (stereo unspecified) showed a melting point of 65 to 68 °C.
Consider `CC(=O)c1ccc(CCCCCCOc2ccc(C(=O)c3cccc(C(=O)O)c3)cc2CCC(=O)O)cc1`, for which the melting point fell in the range of 139 to 141 °C.
The compound `CCOc1cccc(-c2ccc(C3CCN(S(=O)(=O)C(C)(C)C(=O)O)CC3)cc2C)n1` showed a melting point of 178 to 179 °C.
The compound `Cc1ccc(S(=O)(=O)C2(CC#Cc3ccc(Cl)cc3)SC(=O)NC2=O)cc1` (stereo unspecified) returned a melting point of 172 to 174 °C.
As for `Cc1ccccc1-c1nc(COc2cccc3cc(NS(=O)(=O)C(F)(F)F)ccc23)co1`, the figure is 127 to 130 °C; as for `O=C(O)c1ccc(CCCc2ccccc2CCc2ccccc2)cc1`, 97 to 98 °C; as for `CC(C)(CN1CCC(CNC(=O)N2C(=O)C3(CCCC3)c3ccccc32)CC1)C(=O)O`, 189 °C.
To `O=S(=O)(c1cccc2c(Cl)cccc12)N1CC2CCC(CC2)C1` belongs 105 to 106 °C; to `CC(=O)OC1CSC(Oc2cncc(-c3c(F)cc(F)cc3F)c2)C(OC(C)=O)C1OC(C)=O` (stereo unspecified), 143 °C; to `C=CCOC(=O)c1ccc(NCCCCCCCCCCCCCCCC)cc1`, 81 to 83 °C.
Regarding `CC(=O)NS(=O)(=O)c1ccc(N2CCN(CC[C@@H]3OCCc4ccccc43)CC2)cc1`, the melting point was in the range of 160 to 161 °C.
Consider `O=C(c1ccc(F)c(F)c1)N1CCCC(c2noc(-c3ncc[nH]3)n2)C1` (stereo unspecified), for which the melting point lay in the range of 148 to 149 °C.
In the case of `CS(=O)(=O)c1ccc(C(Br)C(=O)c2ccc(F)cc2)cc1` (stereo unspecified), the melting point lay in the range of 140 to 141 °C.
In turn, `Nc1ccc(C(=O)N2CCCCc3sccc32)c(Cl)c1` showed a melting point of 176 to 179 °C.
With `O=[N+]([O-])c1cccc(SC(CCl)S(=O)(=O)c2cccc([N+](=O)[O-])c2)c1` (stereo unspecified), the melting point lay in the range of 98 to 110 °C.
To `CCCN(CCC)CCCCCOc1ccc2oc(-c3cccc(OC)c3)cc(=O)c2c1` belongs 80 to 81 °C; to `CCCn1nc2c(N)nc3c(c2c1CCC1CCCCC1)CCCC3`, 173 to 174 °C.
To `CCCc1cc(C(O)(CC)CC)ccc1-c1cc(CCc2ccc(CO)c(CO)c2)ccc1C` belongs 76 °C.
In the case of `Nc1ncnc2c1ncn2Cc1oc2ccc(F)cc2c(=O)c1-c1ccccc1`, the melting point lay in the range of 207 to 209 °C.
To `COC(=O)c1cc(C(=O)NC(C)C(=O)OC)c2ccc(Cc3ccc(F)cc3)nc2c1O` (stereo unspecified) belongs 157 to 158 °C; to `O=C(CCCCCN1CCN(c2cccc(OC(F)(F)F)c2)CC1)N1Cc2ccccc2C1`, 89 °C.
The compound `CCOC(=O)CCc1ccc(C2COc3c(C)c(C)c(NC(=O)CC(C)(C)C)c(C)c32)cc1` (stereo unspecified) showed a melting point of 103 to 105 °C.
`COC(=O)c1ccccc1C=NC(C)(C(N)=O)C(C)C` (stereo unspecified) had a melting point of 79 to 80.5 °C.
`CC(=O)c1coc(S(N)(=O)=O)c1` displayed a melting point of 135 to 136 °C.
In turn, `COc1ccc2c3c([nH]c2c1)C(=S)C(CC1CCN(Cc2ccccc2)CC1)C3` (stereo unspecified) came in with a melting point of 180 to 181 °C.
To `CCCc1nc2c(N)nc3ccc(-c4ccc(F)cc4CN)cc3c2s1` belongs 198 to 201 °C.
Consider `CCCCNC(=O)OC1c2nccnc2C(=O)N1c1ccc2ccc(Cl)nc2n1` (stereo unspecified), for which the melting point amounted to 264 °C.
`CC(C)(C)OC(=O)NCc1nc2c(C(F)(F)F)cccc2c(O)c1C(=O)Nc1nccs1` yielded a melting point of 238 °C.
Consider `CC(=O)[C@H]1CC[C@H](CNC(=O)OCc2ccccc2)CC1`, for which the melting point was in the range of 66 to 67 °C.
Take `Nc1cc(C(F)(F)F)cnc1N`: the melting point fell in the range of 97 to 99 °C.
In turn, `CSCc1nc(C(C)(C)O)c(C(=O)O)n1Cc1ccc(-c2ccccc2-c2nnn[nH]2)cc1` displayed a melting point of 172 to 181 °C.
With `CC[C@@H]1O[C@](/C=C/C2CC2)(C(F)(F)F)c2cc(Cl)ccc2NC1=O` (relative stereo), the melting point was in the range of 147 to 148 °C.
For `ClC(Cl)=CCOc1cc(Cl)c(OCc2ccncc2)c(Cl)c1`, the melting point worked out at 74 °C.
As for `Fc1cccc(F)c1-c1ccc2cccnc2n1`, the figure is 100 to 103 °C; as for `CCOC(=O)c1cnc(Nc2ccccc2OC)[nH]c1=O`, 217 to 219 °C.
To `CC(=C1SCCCS1)c1cccc(O)c1` belongs 63 to 64 °C.
As for `Cc1ccccc1OCCC(=O)N(C)c1ccccc1`, the melting point worked out at 76 °C.
As for `CCCCCCCCCC(=O)OC1CCC2C3CCC4=CC(=O)CCC4C3CCC12CC` (stereo unspecified), the figure is 97 to 97.5 °C.
As for `OCC1(CO)CC=CC1`, the figure is 168 to 170 °C.
Turning to `COc1ccc(-c2cc(=O)n(CC=Cc3ccc(F)cc3F)nc2-c2ccc(OC)cc2)cc1`, the melting point was in the range of 107 to 108 °C.
`CN1C(=O)CC[C@]2(C)c3ccc(-c4c5ccccc5cc5ccccc45)cc3CC[C@@H]12`: the melting point is 95 to 110 °C.
`Cc1cccc(C)c1CNc1cc(C2=NCCN2)cc2c1nc(C)n2C` displayed a melting point of 273 to 274 °C.
With `Cc1nc(O)c2c(n1)N(c1c(C)cc(Br)cc1C)C(=O)C2C` (stereo unspecified), the melting point was in the range of 271 to 273 °C.
As to `O=C(Nc1ccc(Cl)cc1C(=O)NCc1ccc2c(c1)OCO2)Oc1ccccc1`, the melting point is 149 to 150 °C.
For `N#Cc1ccccc1C#CCOCCn1cnc2c(N)nc3ccccc3c21`, the melting point is 180 to 183 °C.
For the compound `CS(=O)(=O)c1ccc(-c2cnn(C3C4CC5CC(C4)CC3C5)c(=O)c2-c2ccc(F)cc2)cc1` (stereo unspecified), the melting point was 195 to 197 °C.
As for `CN(C)C(=O)COC(=O)c1cc(S(N)(=O)=O)c(Cl)cc1NCc1ccco1`, the figure is 193 to 194 °C; as for `CCO[PH](=O)OP(=O)(CNC(C)(c1ccccc1)c1cc(C(C)(C)C)c(O)c(C(C)(C)C)c1)OCC` (stereo unspecified), 95 to 110 °C; as for `CCC(Oc1c(C)cc(C)cc1C)C(=O)OC1CC(O)C=C2C=CC(C)C(CCC3CC(O)CC(=O)O3)C21` (mixture of isomers), 134 to 136 °C.
To `COc1cc(Oc2ccc(Cl)cc2)ccc1[N+](=O)[O-]` belongs 88 to 89 °C; to `Cc1cccc(N2CCOC2=O)c1CNc1cccn2c(C=O)c(C)nc12`, 196 to 197 °C; to `CC(C)C[C@H](NC(=O)OCc1ccccc1)C(=O)N[C@@H](Cc1ccccc1Cl)C(=O)CSCc1ccco1`, 110 °C.
As to `O=C1Nc2ccccc2C12COc1cc3c(cc12)N(Cc1ccccn1)CC=N3` (stereo unspecified), the melting point was in the range of 232 to 233 °C.
To `CC(C)[C@H](NC(=O)N(C)Cc1ccccn1)C(=O)N[C@@H](Cc1ccccc1)C[C@H](O)[C@H](Cc1ccccc1)NC(=O)[C@@H](NC(=O)N(C)Cc1ccccn1)C(C)C` belongs 92 to 96 °C; to `CNC1CCN(c2c(F)cc3c(=O)c(C(=O)O)cn(C4CC4)c3c2OC)CC1(C)C` (stereo unspecified), 246 to 248 °C.
The compound `CC1CCc2nc(=O)c(C(N)=O)cn21` (stereo unspecified) had a melting point of 223 °C.
Compound `CCOC(=O)C(CC)Oc1ccc(-c2coc3cc4c(cc3c2=O)OCO4)cc1` (stereo unspecified) yielded a melting point of 119 to 121 °C.
For `Clc1cccc(OCCBr)c1Cl`, the melting point lay in the range of 51 to 56 °C.
Turning to `Cc1nn(-c2ccc(F)cc2)cc1C(=O)N(CCCC(=O)O)c1ccc(OCC(C)(C)C)c(C#N)c1`, the melting point is 178 to 180 °C.
The compound `COc1cccc2c1CN(c1c(F)c(F)c3c(=O)c(C(=O)O)cn(C4CC4)c3c1F)C2` returned a melting point of over 280 °C.
For `COC(=O)CC(C)C1CCC2C3CC=C4CC(OC(C)=O)CC(OC(C)=O)C4(C)C3CCC12C` (stereo unspecified), the melting point was in the range of 123 to 124 °C.
As for `COC(=O)CCC(=O)c1ccc(-c2ccc(C#N)cc2)cc1`, the figure is 149 to 151 °C; as for `Oc1ccc2c(c1O)OCC(c1cccc(F)c1)C2` (stereo unspecified), 148 to 149 °C; as for `O=c1[nH]c2cccnc2n1-c1ccccc1F`, 195 °C.
To `CC(=O)Nc1c(N)cc(C(=O)O)c(O)c1Br` belongs 210 to 211 °C; to `COc1cc(C)c(C)c2c1CCC2=O`, 127 to 128 °C.
For `Brc1cncc(N2C=CCC2)c1`, the melting point was 98 to 99 °C.
To `CCCCOc1c(CNC(=O)OC(C)(C)C)n(CC2CC2)c(=O)c2ccc(C(=O)OC)cc12` belongs 139 to 140 °C; to `O=C(Nc1ccc(-n2nc(C(F)(F)F)cc2C(F)(F)F)cc1)c1ccccc1Oc1ccccc1`, 108 to 109 °C.
Turning to `CNCc1ccsc1CC(=O)O`, the melting point lay in the range of 181 to 182 °C.
The compound `C=CCn1c(C)nc2c1CC(C(=O)OCC)C1=C2NC2(CC1=O)Cc1ccccc1C2` (stereo unspecified) registered a melting point of 164 to 165 °C.
As for `CCCCCCC(O)CCCCCCCCCCC(=O)OC` (stereo unspecified), the melting point amounted to 58 °C.
To `CCc1csc(-c2ccc(OCCC3CCN(c4ccc(C)nn4)CC3)cc2)n1` belongs 113 °C; to `COc1cc2nc(N3CCN(C(=O)C4CCCCC4)CC3)nc(N)c2cc1OC`, 223 to 225 °C; to `CN1N=C(c2ccccc2)C(C)(C)NC1=O`, 128 to 130 °C.
With `COC(=O)c1ccc2c(c1)S(=O)(=O)c1ccccc1N=C2Cl`, the melting point was 254 to 256 °C.
In turn, `CSc1ccc(C2OC(=O)NC2CO)cc1` (stereo unspecified) displayed a melting point of 130 to 131 °C.
Consider `Cc1cc(Oc2cc(C(F)(F)F)nn2C)nc(C(=O)O)c1`, for which the melting point turned out to be 168 °C.
To `O=C(NOCC(O)CO)c1cc(Br)c(F)c(F)c1Nc1ccccc1F` (stereo unspecified) belongs 144 °C.
For the compound `NS(=O)(=O)c1ccc(-c2cnn(-c3ccc(F)c(F)c3)c(=O)c2Oc2ccc(F)cc2)cc1`, the melting point was in the range of 224 to 226 °C.
